These compounds were tested against T1, human PAD4 (Homo sapiens, UniProt Q9UM07) (assay: In vitro PAD4 BAEE biochemical assay). Details: BAEE substrate 3 mM, 5 nM PAD4, 2 mM calcium chloride; geometric mean of multiple experiments.
T1 construct: human PAD4 (NM_012387), A2-P663, was PCR amplified; His-SUMO (N, cleaved yes); made in house; host or cells: E. coli BL21(DE3)
How it was run: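 Fluorescence read-out (ex 405/em 535 nm) of isoindole formed from ammonia, o-phthalaldehyde and DTT after EDTA stop. Reaction: 5 nM PAD4, 2 mM CaCl2, 3 mM BAEE, 2 h, 25 °C, after 30 min enzyme–compound preincubation. Normalised to BB-Cl-Amidine (50 µM) and DMSO controls.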

T1 sequence (Q9UM07 2-663): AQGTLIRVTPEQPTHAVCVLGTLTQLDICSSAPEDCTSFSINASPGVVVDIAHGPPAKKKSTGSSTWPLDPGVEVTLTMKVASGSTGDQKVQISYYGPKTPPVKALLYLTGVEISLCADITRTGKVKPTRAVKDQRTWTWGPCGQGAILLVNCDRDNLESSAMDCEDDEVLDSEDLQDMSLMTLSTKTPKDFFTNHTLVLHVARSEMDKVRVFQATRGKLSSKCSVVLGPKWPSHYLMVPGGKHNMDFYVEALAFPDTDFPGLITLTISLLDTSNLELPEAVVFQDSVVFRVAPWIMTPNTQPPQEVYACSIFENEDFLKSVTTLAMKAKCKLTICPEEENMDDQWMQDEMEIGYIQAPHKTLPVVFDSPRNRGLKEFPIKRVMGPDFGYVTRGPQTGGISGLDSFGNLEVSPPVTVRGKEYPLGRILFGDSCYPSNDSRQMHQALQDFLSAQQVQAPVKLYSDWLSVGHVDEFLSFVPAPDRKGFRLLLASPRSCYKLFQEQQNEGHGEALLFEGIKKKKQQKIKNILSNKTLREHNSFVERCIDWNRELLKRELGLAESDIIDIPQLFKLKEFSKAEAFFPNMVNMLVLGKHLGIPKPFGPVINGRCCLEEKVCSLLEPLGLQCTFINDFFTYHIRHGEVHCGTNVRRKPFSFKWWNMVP

Row | SMILES | IC50 [nM]
1 | COc1cc(C(=O)N2CCC[C@@H](N)C2)cc2nc(-c3cc4ccc5nc4n3CCCCC[C@H]3C[C@@H]3C(=O)N[C@@H]5C)n(C)c12 [Example 158, (2~{R},5~{S},7~{S})-14-[5-[(3~{R})-3-aminopiperidine-1-carbonyl]-7-methoxy-1-methyl-benzimidazol-2-yl]-2-methyl-3,13,19-triazatetracyclo[11.5.2.0^{5,7}.0^{16,20}] icosa-1(19),14,16(20),17-tetraen-4-one] | 241
2 | COc1cc(C(=O)N[C@H]2CNC[C@H](F)C2)cc2nc(-c3cc4ccc5nc4n3CCCCCCC(C)(C)C(=O)N[C@@H]5C)n(C)c12 [Example 64, ~{N}-[(3~{R},5~{R})-5-fluoro-3-piperidyl]-7-methoxy-1-methyl-2-[(11~{R})-8,8,11-trimethyl-9-oxo-1,10,19-triazatricyclo[10.5.2.0^{15,18}]nonadeca-12(19),13,15(18),16-tetraen-17-yl]benzimidazole-5-carboxamide] | 315
3 | COc1cc(C(=O)N2CC[C@H]3OCCN[C@H]3C2)cc2nc(-c3cc4ccc5cc4n3CCCCCCC(C)(C)C(=O)N[C@@H]5C)n(C)c12 [Example 190, (11~{R})-17-[5-[(4~{a}~{S},8~{a}~{R})-2,3,4,4~{a},5,7,8,8~{a}-octahydropyrido[4,3-b][1,4]oxazine-6-carbonyl]-7-methoxy-1-methyl-benzimidazol-2-yl]-8,8,11-trimethyl-1,10-diazatricyclo[10.5.2.0^{15,18}]nonadeca-12(19),13,15(18),16-tetraen-9-one] | 94
4 | C[C@H]1NC(=O)[C@@H]2C[C@H]2CCCCCn2c(-c3nc4cc(C(=O)N5C[C@H](N)[C@@H]6CC[C@H]5C6)cc(OC(F)F)c4n3C)cc3ccc1nc32 [Example 763, (2~{R},5~{R},7~{R})-14-[5-[(1~{S},4~{R},5~{R})-4-amino-2-azabicyclo[3.2.1]octane-2-carbonyl]-7-(difluoromethoxy)-1-methyl-benzimidazol-2-yl]-2-methyl-3,13,19-triazatetracyclo[11.5.2.0^ {5,7}.0^{16,20}]icosa-1(19),14,16(20),17-tetraen-4-one] | 13
5 | CC(C)OCCn1c(-c2cc3ccc4nc3n2CCCCCCC(C)(C)C(=O)N[C@@H]4C)nc2cc(C(=O)N[C@H]3CNCC[C@@H]3F)c(F)cc21 [Example 424, 6-fluoro-~{N}-[(3~{S},4~{S})-4-fluoro-3-piperidyl]-1-(2-isopropoxyethyl)-2-[(11~{R})-8,8,11-trimethyl-9-oxo-1,10,19-triazatricyclo[10.5.2.0^{15,18}]nonadeca-12(19),13,15(18),16-tetraen-17-yl]benzimidazole-5-carboxamide] | 111
6 | COc1cc(C(=O)N2[C@H]3CC[C@@H]2[C@H](N)C3)cc2nc(-c3cc4ccc5nc4n3CCCCOCC(=O)N3CCC[C@H]53)n(C)c12 [Example 133, (2~{R})-15-[5-[(1~{R},2~{R},4~{S})-2-amino-7-azabicyclo[2.2.1]heptane-7-carbonyl]-7-methoxy-1-methyl-benzimidazol-2-yl]-9-oxa-6,14,20-triazatetracyclo[12.5.2.0^{2,6}.0^{17,21}] henicosa-1(20),15,17(21),18-tetraen-7-one] | 47
7 | COc1cc(C(=O)N2[C@H]3CC[C@@H]2[C@H](N)C3)cc2nc(-c3cc4ccc5nc4n3C[C@@H]3[C@H](COCCC(=O)N[C@@H]5C)C3(C)C)n(C)c12 (single isomer, unassigned) [Example 10, (3˜{R},5˜{S},12˜{R})-18-[5-[(1˜{R},2˜{R},4˜{S})-2-amino-7-azabicyclo[2.2.1]heptane-7-carbonyl]-7-methoxy-1-methyl-benzimidazol-2-yl]-4,4,12-trimethyl-7-oxa-1,11,20-triazatetracyclo[11.5.2.0^{3,5}.0^{16,19}]icosa-13(20),14,16(19),17-tetraen-10-one] | 56
8 | CO[C@@H]1CCN(C(=O)c2cc(F)c3c(c2)nc(-c2cc4ccc5nc4n2CCCCC[C@@H]2CC2C(=O)N[C@@H]5C)n3C)C[C@@H]1N (stereo partly drawn) [Example 512, (2~{R},5~{R},7~ {R})-14-[5-[(3~{S},4~{R})-3-amino-4-methoxy-piperidine-1-carbonyl]-7-fluoro-1-methyl-benzimidazol-2-yl]-2-methyl-3,13,19-triazatetracyclo[11.5.2.0^ {5,7}.0^{16,20}]icosa-1(19),14,16(20),17-tetraen-4-one] | 65

The remaining compounds from weak to strong by IC50, led by results:

Row | IC50 [nM] | SMILES
9 | 137 | COc1cc(C(=O)N2CCC[C@@H](N)C2)cc2nc(-c3cc4ccc5nc4n3C[C@@H]3C[C@H]3CO[C@H](C)CC(=O)N[C@@H]5C)n(C)c12 [Example 268, (5~{R},8~{R},12~{R})-18-[5-[(3~{R})-3-aminopiperidine-1-carbonyl]-7-methoxy-1-methyl-benzimidazol-2-yl]-8,12-dimethyl-7-oxa-1,11,20-triazatetracyclo[11.5.2.0^{3,5}.0^{16,19}] icosa-13(20),14,16(19),17-tetraen-10-one]
10 | 125 | COc1cc(C(=O)N2[C@H]3CC[C@@H]2[C@H](N)C3)cc2nc(-c3cc4ccc5nc4n3CCCCCCCC(=O)N3CC4(CC4)CC53)n(C)c12 (stereo partly drawn) [Example 134, 16-[5-[(1˜{R},2˜{R},4˜{S})-2-amino-7-azabicyclo[2.2.1]heptane-7-carbonyl]-7-methoxy-1-methyl-benzimidazol-2-yl]spiro[6,15,21-triazatetracyclo[13.5.2.0^{2,6}.0^{18,22}]docosa-1(21),16,18(22),19-tetraene-4,1′-cyclopropane]-7-one]
11 | 103 | COc1cc(C(=O)N[C@H]2CNCC[C@@H]2F)cc2nc(-c3cc4ccc5nc4n3CCCCCCC(C)(C)C(=O)N[C@@H]5C)n(C)c12 [Example 75, ~{N}-[(3~{S},4~{S})-4-fluoro-3-piperidyl]-7-methoxy-1-methyl-2-[(11~{R})-8,8,11-trimethyl-9-oxo-1,10,19-triazatricyclo[10.5.2.0^{15,18}]nonadeca-12(19),13,15(18),16-tetraen-17-yl]benzimidazole-5-carboxamide]
12 | 70 | C[C@H]1NC(=O)[C@H]2C[C@@H]2CC(F)(F)CCCn2c(-c3nc4cc(C(=O)N[C@H]5CNCC[C@@H]5F)c(F)cc4n3C)cc3ccc1nc32 [Example 624, 2-[(2~{R},5~{S},7~{R})-9,9-difluoro-2-methyl-4-oxo-3,13,19-triazatetracyclo[11.5.2.0^ {5,7).0^{16,20}]icosa-1(19),14,16(20), 17-tetraen-14-yl]-6-fluoro-~{N}-[(3~{S},4~ {S})-4-fluoro-3-piperidyl]-1-methyl-benzimidazole-5-carboxamide]
13 | 58 | COc1cc(C(=O)N2[C@H]3CC[C@@H]2[C@H](N)C3)cc2nc(-c3cc4ccc5nc4n3C[C@H]3C[C@H]3CCCC(C)(C)C(=O)N[C@@H]5C)n(C)c12 [Example 145, (3~{S},5~{R},12~{R})-18-[5-[(1~{R},2~{R},4~{S})-2-amino-7-azabicyclo[2.2.1]heptane-7-carbonyl]-7-methoxy-1-methyl-benzimidazol-2-yl]-9,9,12-trimethyl-1,11,20-triazatetracyclo[11.5.2.0^{3,5}.0^{16,19}] icosa-13(20),14,16(19),17-tetraen-10-one]
14 | 52 | C[C@H]1NC(=O)[C@@H]2C[C@H]2CCCC(F)(F)Cn2c(-c3nc4cc(C(=O)N[C@H]5CNCC[C@@H]5F)c(F)c(F)c4n3C)cc3ccc1nc32 [Example 560, 2-[(2~{R},5~{R},7~ {R})-11,11-difluoro-2-methyl-4-oxo-3,13,19-triazatetracyclo[11.5.2.0^ {5,7}.0^{16,20}]icosa-1(19), 14,16(20),17-tetraen-14-yl]-6,7-difluoro-~{N}-[(3~{S},4~{S})-4-fluoro-3-piperidyl]-1-methyl-benzimidazole-5-carboxamide]
15 | 43 | COc1cc(C(=O)N2[C@H]3CC[C@@H]2[C@H](N)C3)cc2nc(-c3cc4ccc5nc4n3CCCC[C@H]3C[C@@H]3C(=O)N[C@@H]5C)n(C)c12 [Example 152, (2~{R},5~{S},7~{S})-13-[5-[(1~{R},2~{R},4~{S})-2-amino-7-azabicyclo[2.2.1]heptane-7-carbonyl]-7-methoxy-1-methyl-benzimidazol-2-yl]-2-methyl-3,12,18-triazatetracyclo[10.5.2.0^{5,7}.0^{15,19}] nonadeca-1(18),13,15(19),16-tetraen-4-one]
16 | 29 | COc1cc(C(=O)N2C[C@H](N)[C@@H]3CC[C@H]2C3)cc2nc(-c3cc4ccc5nc4n3CCCCCc3cc(F)cc(F)c3C(=O)N[C@@H]5C)n(C)c12 [Example 935, (2~{R})-17-[5-[(1~{S),4~{R},5~ {R})-4-amino-2-azabicyclo[3.2.1]octane-2-carbonyl]-7-methoxy-1-methyl-benzimidazol-2-yl]-6,8-difluoro-2-methyl-3,16,22-triazatetracyclo[14.5.2.0^ {5,10}.0^{19,23}]tricosa-1(21),5(10),6,8,17,19,22-heptaen-4-one]
17 | 18 | COc1cc(C(=O)N2C[C@H](N)[C@@H]3CC[C@H]2C3)cc2nc(-c3cc4ccc5nc4n3CCCCCC[C@](F)(c3ccccn3)C(=O)N[C@@H]5C)n(C)c12 [Example 883, (8~{S},11~{R})-17-[5-[(1~{S},4~{R},5~{R})-4-amino-2-azabicyclo[3.2.1]octane-2-carbonyl]-7-methoxy-1-methyl-benzimidazol-2-yl]-8-fluoro-11-methyl-8-(2-pyridyl)-1,10,19-triazatricyclo[10.5.2.0^ {15,18}]nonadeca-12(19), 13,15(18),16-tetraen-9-one]
18 | 12 | COc1cc(C(=O)N2[C@H]3CC[C@@H]2[C@H](N)C3)cc2nc(-c3cc4ccc5nc4n3CCCCCC[C@H](C)C(=O)N[C@@H]5C)c(C)n12 [Example 124, (8~{S},11~{R})-17-[7-[(1~{R},2~{R},4~{S})-2-amino-7-azabicyclo[2.2.1]heptane-7-carbonyl]-5-methoxy-3-methyl-imidazo[1,2-a]pyridin-2-yl]-8,11-dimethyl-1,10,19-triazatricyclo[10.5.2.0^{15,18}]nonadeca-12(19),13,15(18),16-tetraen-9-one]

Source: US11976083B2, “Inhibitors of peptidylarginine deiminases” (Gilead Sciences, Inc., priority 2020, dated 2024)
